Laboratory results from patent US20250092065A1, “2-(INDAZOL-5-YL)-6-(PIPERIDIN-4-YL)-1,7-NAPHTHYRIDINE DERIVATIVES AND RELATED COMPOUNDS AS MODULATORS FOR SPLICING NUCLEIC ACIDS AND FOR THE TREATMENT OF PROLIFERATIVE DISEASES” (REMIX THERAPEUTICS INC., priority 2022, published 2025).
pIC50: −log10 of the molar value. Counter-ions that a name gives are not always drawn. Like-named read-outs stand apart in the source and are kept apart here.

Assays:
[1] = system: MYB mRNA; test: RT-qPCR splicing assay, MYB mRNA canonical (CJ) and alternative (AJ) junction; assay type: cell-based, human; conditions: Homo sapiens; for AC50: MYB alternative junction mRNA increase, read-out: MYB AJ (increase in alternative junction mRNA, AC50)
How it was run: (§1)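 A673 or K562 cells treated 24 h at 37 °C with an 11-point 3-fold dilution series (top 10 uM, DMSO ≤0.25%). Lysates went directly to one-step RT-qPCR quantifying canonical (CJ) and alternative-exon (AJ) junctions, normalized to GAPDH, GUSB or PPIA. Values from ΔΔCt versus DMSO, RQ = 2^(−ΔΔCt), expressed as percentage response.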

[2] = system: Target C; test: RT-qPCR canonical junction panel assay, Target C mRNA; assay type: cell-based; conditions: Table 4, read-out: Target C IC50 (decrease in CJ mRNA levels)
How it was run: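 A673 or K562 cells treated with compound; CJ mRNA quantified by junction-spanning RT-qPCR probe after cDNA synthesis, normalised to GAPDH, GUSB or PPIA and DMSO (2^−ΔΔCt), scaled to set ΔCt assay window; IC50 from 4-parameter fit of CJ decrease.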

[3] = system: HTT mRNA; test: RT-qPCR splicing assay, HTT mRNA canonical (CJ) and alternative (AJ) junction; assay type: cell-based, human; conditions: Homo sapiens; for AC50: HTT alternative junction mRNA increase, read-out: HTT AJ (increase in alternative junction mRNA, AC50)
How it was run: as §1

[4] = system: SMN2 mRNA; test: RT-qPCR splicing assay, SMN2 mRNA; assay type: cell-based, human; conditions: Homo sapiens, canonical junction qPCR panel, Table 4; read-out: SMN2 IC50 (decrease in CJ mRNA levels)
How it was run: as §1

[5] = system: K562 cells; test: Cell Titer Glo 2.0 cell viability (toxicity) assay, K562; conditions: 500 cells/well, 72 hours
[6] = RT-qPCR, MYB canonical junction mRNA decrease, read-out: MYB CJ (decrease in canonical junction mRNA, IC50)
[7] = canonical junction qPCR panel, Table 4, read-out: MYB IC50 (decrease in CJ mRNA levels)
[8] = RT-qPCR, HTT canonical junction mRNA decrease, read-out: HTT CJ (decrease in canonical junction mRNA, IC50)
[9] = canonical junction qPCR panel, Table 4, read-out: HTT IC50 (decrease in CJ mRNA levels)

COc1cc(-c2ncc3cc(N4C[C@H](C)N[C@@H](C)C4)ccc3n2)cn2cc(C)nc12 [Compound 816]
AC50 ([1]; RT-qPCR): < 100 nM | pIC50 [1, 6]: 6.00 to 7.00 | pIC50 [1, 7]: 6.00 to 7.00 | pIC50 [2]: < 5.00 | AC50 ([3]; RT-qPCR): 1000 to 10000 nM | pIC50 [3, 8]: 5.00 to 6.00 | pIC50 [3, 9]: 5.00 to 6.00 | pIC50 [4]: > 7.00 | Effect of Exemplary Compounds on Cell Viability, K562 [5]: B (B represents 100-1000 nM)

Cc1cn2cc(-c3ncc4cc(N5C[C@H](C)N[C@@H](C)C5)ccc4n3)cc(C#N)c2n1 [Compound 817]
AC50 ([1]; RT-qPCR): < 100 nM | pIC50 [1, 6]: > 7.00 | pIC50 [1, 7]: > 7.00 | pIC50 [2]: 5.00 to 6.00 | AC50 ([3]; RT-qPCR): 1000 to 10000 nM | pIC50 [3, 8]: 6.00 to 7.00 | pIC50 [3, 9]: 6.00 to 7.00 | pIC50 [4]: > 7.00 | Effect of Exemplary Compounds on Cell Viability, K562 [5]: B (B represents 100-1000 nM)

Cc1nc2c(F)cc(-c3ncc4cc(N5C[C@H](C)N[C@@H](C)C5)ccc4n3)cn2n1 [Compound 819, 6-[(3S,5S)-3,5-dimethylpiperazin-1-yl]-2-{8-fluoro-2-methyl-[1,2,4]triazolo[1,5-a]pyridin-6-yl}quinazoline hydrochloride]
AC50 ([1]; RT-qPCR): 100 to 1000 nM | pIC50 [1, 6]: 6.00 to 7.00 | pIC50 [1, 7]: 6.00 to 7.00 | pIC50 [2]: 5.00 to 6.00 | AC50 ([3]; RT-qPCR): 1000 to 10000 nM | pIC50 [3, 8]: 5.00 to 6.00 | pIC50 [3, 9]: 5.00 to 6.00 | pIC50 [4]: > 7.00 | Effect of Exemplary Compounds on Cell Viability, K562 [5]: B (B represents 100-1000 nM)

CCc1cn2cc(-c3ncc4cc(N5C[C@H](C)N[C@@H](C)C5)ccc4n3)cc(F)c2n1 [Compound 821]
AC50 ([1]; RT-qPCR): > 10000 nM | pIC50 [1, 6]: 5.00 to 6.00 | pIC50 [1, 7]: 5.00 to 6.00 | pIC50 [2]: < 5.00 | AC50 ([3]; RT-qPCR): > 10000 nM | pIC50 [3, 8]: < 5.00 | pIC50 [3, 9]: < 5.00 | pIC50 [4]: 6.00 to 7.00 | Effect of Exemplary Compounds on Cell Viability, K562 [5]: C (C represents 1000-9999 nM)

COc1nc(-c2ncc3cc(N4C[C@H](C)N[C@@H](C)C4)ccc3n2)cn2cc(C)nc12 [Compound 823]
AC50 ([1]; RT-qPCR): 100 to 1000 nM | pIC50 [1, 6]: 6.00 to 7.00 | pIC50 [1, 7]: 6.00 to 7.00 | pIC50 [2]: < 5.00 | AC50 ([3]; RT-qPCR): 1000 to 10000 nM | pIC50 [3, 8]: 5.00 to 6.00 | pIC50 [3, 9]: 5.00 to 6.00 | pIC50 [4]: > 7.00 | Effect of Exemplary Compounds on Cell Viability, K562 [5]: B (B represents 100-1000 nM)

Cc1cn2cc(-c3ncc4cc(N5C[C@H](C)N(C)[C@@H](C)C5)ccc4n3)cc(F)c2n1 [Compound 824]
AC50 ([1]; RT-qPCR): 100 to 1000 nM | pIC50 [1, 6]: 6.00 to 7.00 | pIC50 [1, 7]: 6.00 to 7.00 | pIC50 [2]: 5.00 to 6.00 | AC50 ([3]; RT-qPCR): 1000 to 10000 nM | pIC50 [3, 8]: 6.00 to 7.00 | pIC50 [3, 9]: 6.00 to 7.00 | pIC50 [4]: > 7.00 | Effect of Exemplary Compounds on Cell Viability, K562 [5]: B (B represents 100-1000 nM)

Cc1nc2c(F)cc(-c3ncc4cc(N5C[C@@H](C)N[C@@H](C)C5)ccc4n3)cn2n1 [Compound 825, 6-[(3R,5S)-3,5-dimethylpiperazin-1-yl]-2-{8-fluoro-2-methyl-[1,2,4]triazolo[1,5-a]pyridin-6-yl}quinazoline]
AC50 ([1]; RT-qPCR): 100 to 1000 nM | pIC50 [1, 6]: 6.00 to 7.00 | pIC50 [1, 7]: 6.00 to 7.00 | pIC50 [2]: 5.00 to 6.00 | AC50 ([3]; RT-qPCR): 1000 to 10000 nM | pIC50 [3, 8]: 5.00 to 6.00 | pIC50 [3, 9]: 5.00 to 6.00 | pIC50 [4]: > 7.00 | Effect of Exemplary Compounds on Cell Viability, K562 [5]: C (C represents 1000-9999 nM)

Cc1cn2cc(-c3ncc4cc(N5C[C@@H](C)N(C)[C@@H](C)C5)ccc4n3)cc(F)c2n1 [Compound 826, 2-{8-fluoro-2-methylimidazo[1,2-a]pyridin-6-yl}-6-[(3R,5S)-3,4,5-trimethylpiperazin-1-yl]quinazoline]
AC50 ([1]; RT-qPCR): < 100 nM | pIC50 [1, 6]: 6.00 to 7.00 | pIC50 [1, 7]: 6.00 to 7.00 | pIC50 [2]: 5.00 to 6.00 | AC50 ([3]; RT-qPCR): 1000 to 10000 nM | pIC50 [3, 8]: 5.00 to 6.00 | pIC50 [3, 9]: 5.00 to 6.00 | pIC50 [4]: > 7.00 | Effect of Exemplary Compounds on Cell Viability, K562 [5]: B (B represents 100-1000 nM)
